Results published in patent publication US20250163054A1, “SUBSTITUTED BICYCLIC HETEROARYL COMPOUNDS USEFUL AS INHIBITORS OF TLR9” (Bristol-Myers Squibb Company, priority 2022, published 2025).

Tests used:
Assay type in all cases: cell-based
human TLR7 = molecular target: T1, human TLR7 (Homo sapiens, UniProt Q9NYK1); experiment: TLR7/8/9 Inhibition Reporter Assays (TLR7); conditions: HEK-Blue cells overexpressing human TLR7, SEAP reporter, stimulated with TLR7 ligand gardiquimod
T1 construct: host or cells: HEK-Blue cells (HEK293-derived reporter line)
T1 sequence (Q9NYK1 27-1049): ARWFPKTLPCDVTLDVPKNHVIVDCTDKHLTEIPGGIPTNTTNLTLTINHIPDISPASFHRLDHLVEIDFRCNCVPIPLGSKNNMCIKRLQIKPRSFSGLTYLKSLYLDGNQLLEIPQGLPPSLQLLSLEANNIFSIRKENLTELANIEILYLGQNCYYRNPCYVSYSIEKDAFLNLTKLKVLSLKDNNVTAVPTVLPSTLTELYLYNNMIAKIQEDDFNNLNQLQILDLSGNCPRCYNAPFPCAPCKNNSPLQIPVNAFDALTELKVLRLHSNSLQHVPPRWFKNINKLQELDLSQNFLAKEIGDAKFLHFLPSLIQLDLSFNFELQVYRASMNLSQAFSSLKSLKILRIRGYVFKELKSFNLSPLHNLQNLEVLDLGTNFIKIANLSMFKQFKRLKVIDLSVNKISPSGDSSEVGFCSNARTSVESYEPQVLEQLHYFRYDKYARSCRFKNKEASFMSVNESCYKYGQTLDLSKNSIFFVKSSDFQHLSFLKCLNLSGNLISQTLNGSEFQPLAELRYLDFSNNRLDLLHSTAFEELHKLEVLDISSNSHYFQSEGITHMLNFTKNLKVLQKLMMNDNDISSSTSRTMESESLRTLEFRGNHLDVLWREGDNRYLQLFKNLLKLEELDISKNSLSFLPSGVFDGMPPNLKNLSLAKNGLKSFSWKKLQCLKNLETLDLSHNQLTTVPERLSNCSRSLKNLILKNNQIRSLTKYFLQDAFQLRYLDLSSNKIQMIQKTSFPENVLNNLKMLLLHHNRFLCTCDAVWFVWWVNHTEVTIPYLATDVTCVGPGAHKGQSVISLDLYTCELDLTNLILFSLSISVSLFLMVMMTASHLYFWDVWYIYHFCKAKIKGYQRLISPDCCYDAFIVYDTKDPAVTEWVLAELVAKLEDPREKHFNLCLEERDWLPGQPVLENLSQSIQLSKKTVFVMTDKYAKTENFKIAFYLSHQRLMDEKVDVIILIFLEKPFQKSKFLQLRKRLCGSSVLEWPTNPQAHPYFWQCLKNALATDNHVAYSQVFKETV
Method: (§1) HEK-Blue™-cells (Invivogen) overexpressing human TLR7, TLR8 or TLR9 receptors were used for screening inhibitors of these receptors using an inducible SEAP (secreted embryonic alkaline phosphatase) reporter gene under the control of the IFN-β minimal promoter fused to five NF-κB and AP-1-binding sites. Cells are seeded into Greiner 384 well plates (15000 cells per well) that are predispensed (by ECHO) with testing compounds in DMSO to yield a final dose response concentration range of 0.85 nM-[…]. After a 60 minute compound pre-treatment in 37° C. incubator, the cells are then stimulated with a TLR7 ligand (gardiquimod at a final concentration of […]), TLR8 ligand (R848 at a final concentration of […]) or TLR9 ligand (ODN2006 at a final concentration of 200 nM) to activate NF-κB and AP-1 which induce the production of SEAP. After a 22 hour incubation at 37° C., 5% CO2, SEAP levels are determined with the addition of HEK-Blue™ Detection reagent (Invivogen), a cell culture medium that allows for detection of SEAP, according to manufacturer's specifications. The percent inhibition is determined as the % reduction in the HEK-Blue signal present in wells treated with agonist plus DMSO alone compared to wells treated with a known inhibitor.

human TLR9 = molecular target: T2, human TLR9 (Homo sapiens, UniProt Q9NR96); experiment: TLR7/8/9 Inhibition Reporter Assays (TLR9); conditions: HEK-Blue cells overexpressing human TLR9, SEAP reporter, stimulated with TLR9 ligand ODN2006
T2 construct: host or cells: HEK-Blue cells (HEK293-derived reporter line)
T2 sequence (Q9NR96 26-1032): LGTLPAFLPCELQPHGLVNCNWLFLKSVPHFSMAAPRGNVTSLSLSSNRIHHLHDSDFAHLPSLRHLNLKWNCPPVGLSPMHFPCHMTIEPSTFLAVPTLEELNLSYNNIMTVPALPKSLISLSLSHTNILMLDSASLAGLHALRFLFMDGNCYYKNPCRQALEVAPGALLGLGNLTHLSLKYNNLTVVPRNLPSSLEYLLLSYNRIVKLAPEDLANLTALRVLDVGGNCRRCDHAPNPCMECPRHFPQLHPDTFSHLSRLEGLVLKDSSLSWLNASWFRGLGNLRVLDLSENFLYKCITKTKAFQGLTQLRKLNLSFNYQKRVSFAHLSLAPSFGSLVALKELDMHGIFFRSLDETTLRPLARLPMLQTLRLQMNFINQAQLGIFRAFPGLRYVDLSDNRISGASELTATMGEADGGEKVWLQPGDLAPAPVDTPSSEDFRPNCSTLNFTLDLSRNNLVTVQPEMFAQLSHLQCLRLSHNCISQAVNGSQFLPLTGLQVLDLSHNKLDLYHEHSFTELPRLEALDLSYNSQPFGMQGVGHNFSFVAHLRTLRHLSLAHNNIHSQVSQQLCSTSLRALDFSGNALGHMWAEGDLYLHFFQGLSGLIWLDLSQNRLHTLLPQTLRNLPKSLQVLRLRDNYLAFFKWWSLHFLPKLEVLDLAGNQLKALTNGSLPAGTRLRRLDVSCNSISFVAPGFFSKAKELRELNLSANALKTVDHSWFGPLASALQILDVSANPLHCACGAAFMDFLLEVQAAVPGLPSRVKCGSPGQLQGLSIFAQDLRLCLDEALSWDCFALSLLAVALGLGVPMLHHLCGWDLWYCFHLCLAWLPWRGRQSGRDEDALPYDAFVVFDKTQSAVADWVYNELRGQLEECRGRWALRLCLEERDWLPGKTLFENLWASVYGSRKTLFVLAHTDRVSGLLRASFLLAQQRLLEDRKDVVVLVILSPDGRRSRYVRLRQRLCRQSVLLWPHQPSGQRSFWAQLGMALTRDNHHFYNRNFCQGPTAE
Method: as §1

human TLR8 = molecular target: T3, human TLR8 (Homo sapiens, UniProt Q9NR97); experiment: TLR7/8/9 Inhibition Reporter Assays (TLR8); conditions: HEK-Blue cells overexpressing human TLR8, SEAP reporter, stimulated with TLR8 ligand R848
T3 construct: host or cells: HEK-Blue cells (HEK293-derived reporter line)
T3 sequence (Q9NR97 27-1041): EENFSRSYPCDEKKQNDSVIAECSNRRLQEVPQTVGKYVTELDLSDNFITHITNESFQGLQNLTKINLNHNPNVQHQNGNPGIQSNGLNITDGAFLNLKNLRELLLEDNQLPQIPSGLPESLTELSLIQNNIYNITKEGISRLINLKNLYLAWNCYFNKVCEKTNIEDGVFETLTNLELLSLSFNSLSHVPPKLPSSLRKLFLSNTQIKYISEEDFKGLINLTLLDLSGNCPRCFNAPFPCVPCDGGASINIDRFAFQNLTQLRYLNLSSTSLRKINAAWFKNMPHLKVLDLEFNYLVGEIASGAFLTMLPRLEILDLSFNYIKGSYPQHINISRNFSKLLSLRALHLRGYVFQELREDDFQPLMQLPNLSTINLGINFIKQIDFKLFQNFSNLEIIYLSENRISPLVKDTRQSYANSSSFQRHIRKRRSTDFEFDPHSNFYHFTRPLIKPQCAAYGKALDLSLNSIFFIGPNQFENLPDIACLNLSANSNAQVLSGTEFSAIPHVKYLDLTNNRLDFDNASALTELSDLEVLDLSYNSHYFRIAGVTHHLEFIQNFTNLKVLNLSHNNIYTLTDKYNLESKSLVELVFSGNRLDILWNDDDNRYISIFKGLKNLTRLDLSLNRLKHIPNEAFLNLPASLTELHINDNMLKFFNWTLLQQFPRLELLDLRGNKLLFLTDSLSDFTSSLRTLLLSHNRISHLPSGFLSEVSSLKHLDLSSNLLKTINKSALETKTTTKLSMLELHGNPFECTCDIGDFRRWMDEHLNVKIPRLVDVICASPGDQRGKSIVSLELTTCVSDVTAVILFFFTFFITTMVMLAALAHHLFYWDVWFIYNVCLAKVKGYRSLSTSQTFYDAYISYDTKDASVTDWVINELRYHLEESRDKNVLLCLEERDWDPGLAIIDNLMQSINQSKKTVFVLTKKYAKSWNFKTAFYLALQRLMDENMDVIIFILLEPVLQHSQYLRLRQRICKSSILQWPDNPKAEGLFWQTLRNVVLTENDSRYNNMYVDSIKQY
Method: as §1

| SMILES | IC50 (human TLR7) [nM] | IC50 (human TLR9) [nM] | IC50 (human TLR8) [µM] |
| --- | --- | --- | --- |
| COc1cc(-c2nc3c(C)nc(-c4ccc(N5CCN(CC(C)C)CC5)cc4)cc3n2C)cn2ncnc12 [Example 10, 6-(6-(4-(4-isobutylpiperazin-1-yl)phenyl)-1,4-dimethyl-1H-imidazo[4,5-c]pyridin-2-yl)-8-methoxy-[1,2,4]triazolo[1,5-a]pyridine] | 9600 | 1700 | > 50 |
| COc1cc(-c2nc3c(C)nc(-c4ccc(N5CCN(CC6CC6)CC5)cc4)cc3n2C)cn2ncnc12 [Example 11, 6-(6-(4-(4-(cyclopropylmethyl)piperazin-1-yl)phenyl)-1,4-dimethyl-1H-imidazo[4,5-c]pyridin-2-yl)-8-methoxy-[1,2,4]triazolo[1,5-a]pyridine] | 1100 | 420 | > 50 |
| COc1cc(-c2nc3c(C)nc(-c4ccc(N5CCN(C6CCC6)CC5)cc4)cc3n2C)cn2ncnc12 [Example 12, 6-(6-(4-(4-cyclobutylpiperazin-1-yl)phenyl)-1,4-dimethyl-1H-imidazo[4,5-c]pyridin-2-yl)-8-methoxy-[1,2,4]triazolo[1,5-a]pyridine] | 1500 | 630 | > 50 |
| Cc1cc(-c2nc3c(C)nc(-c4ccc(N5CCN(C(C)C)CC5)cc4)cc3n2C)cc(C)n1 [Example 13, 2-(2,6-dimethylpyridin-4-yl)-6-(4-(4-isopropylpiperazin-1-yl)phenyl)-1,4-dimethyl-1H-imidazo[4,5-c]pyridine] | 1900 | 410 | > 50 |
| Cc1cc(-c2nc3c(C)nc(-c4ccc(N5CCN(CC(C)C)CC5)cc4)cc3n2C)cc(C)n1 [Example 14, 2-(2,6-dimethylpyridin-4-yl)-6-(4-(4-isobutylpiperazin-1-yl)phenyl)-1,4-dimethyl-1H-imidazo[4,5-c]pyridine] | 4500 | 380 | 4.6 |
| Cc1cc(-c2nc3c(C)nc(-c4ccc(N5CCN(CC6CC6)CC5)cc4)cc3n2C)cc(C)n1 [Example 15, 6-(4-(4-(cyclopropylmethyl)piperazin-1-yl)phenyl)-2-(2,6-dimethylpyridin-4-yl)-1,4-dimethyl-1H-imidazo[4,5-c]pyridine] | 1100 | 460 | 18 |
| Cc1cc(-c2nc3c(C)nc(-c4ccc(N5CCN(C6CCC6)CC5)cc4)cc3n2C)cc(C)n1 [Example 16, 6-(4-(4-cyclobutylpiperazin-1-yl)phenyl)-2-(2,6-dimethylpyridin-4-yl)-1,4-dimethyl-1H-imidazo[4,5-c]pyridine] | 2100 | 910 | > 50 |
| COc1ccc(-c2nc3c(C)nc(-c4ccc(N5CCN(CC(C)C)CC5)cc4)cc3n2C)cc1OC [Example 17, 2-(3,4-dimethoxyphenyl)-6-(4-(4-isobutylpiperazin-1-yl)phenyl)-1,4-dimethyl-1H-imidazo[4,5-c]pyridine] | 4400 | 460 | 12 |
| COc1ccc(-c2nc3c(C)nc(-c4ccc(N5CCN(CC6CC6)CC5)cc4)cc3n2C)cc1OC [Example 18, 6-(4-(4-(cyclopropylmethyl)piperazin-1-yl)phenyl)-2-(3,4-dimethoxyphenyl)-1,4-dimethyl-1H-imidazo[4,5-c]pyridine] | 1500 | 140 | 18 |
| COc1ccc(-c2nc3c(C)nc(-c4ccc(N5CCN(C6CCC6)CC5)cc4)cc3n2C)cc1OC [Example 19, 6-(4-(4-cyclobutylpiperazin-1-yl)phenyl)-2-(3,4-dimethoxyphenyl)-1,4-dimethyl-1H-imidazo[4,5-c]pyridine] | 850 | 820 | > 50 |
| Cc1nc(-c2ccc(N3CCN(CC4CC4)CC3)cc2)cc2c1nc(-c1ccc(S(C)(=O)=O)cc1)n2C [Example 20, 6-(4-(4-(cyclopropylmethyl)piperazin-1-yl)phenyl)-1,4-dimethyl-2-(4-(methylsulfonyl)phenyl)-1H-imidazo[4,5-c]pyridine] | 2900 | 360 | 12 |
| Cc1nc(-c2ccc(N3CCN(C4CCC4)CC3)cc2)cc2c1nc(-c1ccc(S(C)(=O)=O)cc1)n2C [Example 21, 6-(4-(4-cyclobutylpiperazin-1-yl)phenyl)-1,4-dimethyl-2-(4-(methylsulfonyl)phenyl)-1H-imidazo[4,5-c]pyridine] | 3000 | 450 | 3.3 |
